Values after ≈ are worked out from the molar mass of the structure shown.
What was measured:
Bacillus spizizenii = experiment: Antibacterial activity against Bacillus subtilis ATCC 6633 after 24 hrs by micro broth dilution method; format: functional; details: ATCC 6633, 24 h
Aspergillus flavus = experiment: Antifungal activity against Aspergillus flavus after 24 hrs by micro broth dilution method; format: functional
Micrococcus luteus = experiment: Antibacterial activity against Micrococcus luteus ATCC 4698 after 24 hrs by micro broth dilution method; format: functional; details: ATCC 4698, 24 h
[1] = n-octanol/water partition coefficient, log P of the compound at 25 deg C after 24 hrs by saturation shake flask based UV spectroscopy; format: physicochemical
Shigella dysenteriae = experiment: Antibacterial activity against Shigella dysenteriae ATCC 51252 after 24 hrs by micro broth dilution method; format: functional; details: ATCC 51252, 24 h
Candida = experiment: Antifungal activity against Candida mycoderma after 24 hrs by micro broth dilution method; format: functional
Staphylococcus aureus [2] = experiment: Antibacterial activity against Staphylococcus aureus ATCC 25923 after 24 hrs by micro broth dilution method; format: functional; details: ATCC 25923, 24 h
Cyberlindnera jadinii = experiment: Antifungal activity against Candida utilis ATCC 9950 after 24 hrs by micro broth dilution method; format: functional; details: Williopsis jadinii, ATCC 9950, 24 h
[3] = Ionization constant, pKa of the compound by UV spectroscopy; format: physicochemical
Escherichia coli = experiment: Antibacterial activity against Escherichia coli DH52 after 24 hrs by micro broth dilution method; format: functional; details: DH52, 24 h
Staphylococcus aureus [4] = experiment: Antibacterial activity against methicillin-resistant Staphylococcus aureus N315 after 24 hrs by micro broth dilution method; format: functional; details: N315, 24 h
Candida albicans = experiment: Antifungal activity against Candida albicans ATCC 90029 after 24 hrs by micro broth dilution method; format: functional; details: ATCC 90029, 24 h
Bacillus sp. = experiment: Antibacterial activity against Bacillus proteus ATCC 13315 after 24 hrs by micro broth dilution method; format: functional; details: Bacillus sp. (in: firmicutes), ATCC 13315, 24 h
Pseudomonas aeruginosa = experiment: Antibacterial activity against Pseudomonas aeruginosa ATCC 27853 after 24 hrs by micro broth dilution method; format: functional; details: ATCC 27853, 24 h

Row | Compound | MIC (Bacillus spizizenii) [µg/mL] | MIC (Aspergillus flavus) [µg/mL] | MIC (Micrococcus luteus) [µg/mL] | logP at 24 h [1] | MIC (Shigella dysenteriae) [µg/mL] | MIC (Candida) [µg/mL] | MIC (Staphylococcus aureus [2]) [µg/mL] | MIC (Cyberlindnera jadinii) [µg/mL] | pKa [3] | MIC (Escherichia coli) [µg/mL] | MIC (Staphylococcus aureus [4]) [µg/mL] | MIC (Candida albicans) [µg/mL] | MIC (Bacillus sp.) [µg/mL] | MIC (Pseudomonas aeruginosa) [µg/mL]
1 | Clc1ccc(CN(Cc2nnn[nH]2)c2ccccc2)cc1Cl | 64 (≈ 191 µM) | 32 (≈ 95.7 µM) | 128 (≈ 383 µM) | 1.63 | 64 (≈ 191 µM) | 16 (≈ 47.9 µM) | 128 (≈ 383 µM) | 32 (≈ 95.7 µM) | 4.49 | 64 (≈ 191 µM) | 128 (≈ 383 µM) | 64 (≈ 191 µM) | 128 (≈ 383 µM) | 64 (≈ 191 µM)
2 | Cc1ccc(N(Cc2nnn[nH]2)Cc2ccc(Cl)cc2Cl)cc1 | 64 (≈ 184 µM) | 16 (≈ 45.9 µM) | 32 (≈ 91.9 µM) | 1.99 | 32 (≈ 91.9 µM) | 8 (≈ 23 µM) | 32 (≈ 91.9 µM) | 16 (≈ 45.9 µM) | 4.26 | 16 (≈ 45.9 µM) | 16 (≈ 45.9 µM) | 16 (≈ 45.9 µM) | 32 (≈ 91.9 µM) | 32 (≈ 91.9 µM)
3 | Fc1ccccc1CN(Cc1nnn[nH]1)c1ccccc1 | 32 (≈ 113 µM) | 64 (≈ 226 µM) | 64 (≈ 226 µM) | 1.28 | 128 (≈ 452 µM) | 16 (≈ 56.5 µM) | 64 (≈ 226 µM) | 32 (≈ 113 µM) | 4.22 | 64 (≈ 226 µM) | 64 (≈ 226 µM) | 32 (≈ 113 µM) | 64 (≈ 226 µM) | 64 (≈ 226 µM)
4 | CCCCCCCCN(Cc1nnn[nH]1)c1ccccc1 | 128 (≈ 445 µM) | 128 (≈ 445 µM) | 64 (≈ 223 µM) | 2.24 | 128 (≈ 445 µM) | 32 (≈ 111 µM) | 128 (≈ 445 µM) | 128 (≈ 445 µM) | 4.83 | 64 (≈ 223 µM) | 128 (≈ 445 µM) | 64 (≈ 223 µM) | 128 (≈ 445 µM) | 256 (≈ 891 µM)
